Results published in PubChem BioAssay (NCI).
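Where inhibition never reached the appropriate level, the endpoint shown equals the highest concentration tested. Otherwise, values were interpolated linearly from a five-concentration, 48-hour dose response in 96-well plates. The concentration for 50% growth inhibition is given as GI50. TGI marks complete inhibition of growth.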

Tests used:
Experiment in all cases: NCI tumour cell line growth inhibition, 48 h
[1] = system: HOP-62 NSCLC
[2] = system: UACC-62 melanoma
[3] = system: DU-145 prostate
[4] = system: SW-620 colon
[5] = system: UO-31 renal
[6] = system: SR leukemia
[7] = system: HOP-92 NSCLC
[8] = system: HL-60(TB) leukemia
[9] = system: EKVX NSCLC
[10] = system: A549 NSCLC
[11] = system: 786-0 renal
[12] = system: MDA-MB-231 breast
[13] = system: SF-268 CNS
[14] = system: UACC-257 melanoma
[15] = system: SK-MEL-2 melanoma
[16] = system: NCI/ADR-RES ovarian
[17] = system: IGROV1 ovarian
[18] = system: SNB-75 CNS
[19] = system: OVCAR-5 ovarian
[20] = system: T-47D breast
[21] = system: A498 renal
[22] = system: NCI-H23 lung
[23] = system: HT29 colon
[24] = system: OVCAR-4 ovarian
[25] = system: LOX IMVI melanoma
[26] = system: HCC-2998 colon
[27] = system: SN12C renal
[28] = system: CAKI-1 renal
[29] = system: COLO 205 colon
[30] = system: SF-539 CNS
[31] = system: SNB-19 CNS
[32] = system: MCF7 breast
[33] = system: SF-295 CNS
[34] = system: OVCAR-3 ovarian
[35] = system: BT-549 breast
[36] = system: RXF 393 renal
[37] = system: SK-OV-3 ovarian
[38] = system: SK-MEL-5 melanoma
[39] = system: HCT-15 colon
[40] = system: NCI-H522 lung
[41] = system: NCI-H460 lung
[42] = system: ACHN renal
[43] = system: HS 578T breast
[44] = system: CCRF-CEM leukemia
[45] = system: MALME-3M melanoma
[46] = system: HCT-116 colon
[47] = system: NCI-H226 lung
[48] = system: U251 CNS
[49] = system: RPMI-8226 leukemia
[50] = system: OVCAR-8 ovarian
[51] = system: SK-MEL-28 melanoma
[52] = system: M14 melanoma
[53] = system: K-562 leukemia
[54] = system: KM12 colon
[55] = system: MDA-MB-435
[56] = system: TK-10 renal
[57] = system: PC-3 prostate
[58] = system: MOLT-4 leukemia

## Nc1nc2c(c3cnccc13)C(c1cccc(Br)c1)Cc1cnccc1-2 (stereo unspecified)
[1]
  GI50: 465 nM
  TGI: 18900 nM
[2]
  GI50: 406 nM
  TGI: 14200 nM
[3]
  GI50: 344 nM
  TGI: 11300 nM
[4]
  GI50: 420 nM
  TGI: 17400 nM
[5]
  GI50: 1200 nM
  TGI: 15500 nM
[6]
  GI50: 243 nM
  TGI: > 100000 nM
[7]
  GI50: 639 nM
  TGI: 16700 nM
[8]
  GI50: 329 nM
  TGI: 961 nM
[9]
  GI50: 487 nM
  TGI: 21500 nM
[10]
  GI50: 627 nM
  TGI: 13600 nM
[11]
  GI50: 482 nM
  TGI: 12600 nM
[12]
  GI50: 1110 nM
  TGI: 15700 nM
[13]
  GI50: 852 nM
  TGI: 18300 nM
[14]
  GI50: 12100 nM
  TGI: 27000 nM
[15]
  GI50: 303 nM
  TGI: 1910 nM
[16]
  GI50: 323 nM
  TGI: 10200 nM
[17]
  GI50: 850 nM
  TGI: 17800 nM
[18]
  GI50: 243 nM
  TGI: 12700 nM
[19]
  GI50: 875 nM
  TGI: 21800 nM
[20]
  GI50: 411 nM
  TGI: 40400 nM
[21]
  GI50: 233 nM
  TGI: 824 nM
[22]
  GI50: 635 nM
  TGI: 14100 nM
[23]
  GI50: 341 nM
  TGI: 1790 nM
[24]
  GI50: 1730 nM
  TGI: 34100 nM
[25]
  GI50: 427 nM
  TGI: 13700 nM
[26]
  GI50: 3620 nM
  TGI: 18800 nM
[27]
  GI50: 877 nM
  TGI: 22900 nM
[28]
  GI50: 422 nM
  TGI: 14400 nM
[29]
  GI50: 273 nM
  TGI: 1070 nM
[30]
  GI50: 235 nM
  TGI: 821 nM
[31]
  GI50: 410 nM
  TGI: 15200 nM
[32]
  GI50: 324 nM
  TGI: 12200 nM
[33]
  GI50: 271 nM
  TGI: 1950 nM
[34]
  GI50: 339 nM
  TGI: 14100 nM
[35]
  GI50: 526 nM
  TGI: 5480 nM
[36]
  GI50: 288 nM
  TGI: 953 nM
[37]
  GI50: 586 nM
  TGI: 17100 nM
[38]
  GI50: 475 nM
  TGI: 3450 nM
[39]
  GI50: 362 nM
  TGI: 10500 nM
[40]
  GI50: 214 nM
  TGI: 620 nM
[41]
  GI50: 370 nM
  TGI: 11500 nM
[42]
  GI50: 1100 nM
  TGI: 12500 nM
[43]
  GI50: 423 nM
  TGI: 29200 nM
[44]
  GI50: 373 nM
  TGI: 14100 nM
[45]
  GI50: 515 nM
  TGI: 18700 nM
[46]
  GI50: 442 nM
  TGI: 11400 nM
[47]
  GI50: 949 nM
  TGI: 18900 nM
[48]
  GI50: 342 nM
  TGI: 2970 nM
[49]
  GI50: 392 nM
  TGI: 12300 nM
[50]
  GI50: 780 nM
  TGI: 44600 nM
[51]
  GI50: 3810 nM
  TGI: 20300 nM
[52]
  GI50: 215 nM
  TGI: 615 nM
[53]
  GI50: 346 nM
  TGI: 17400 nM
[54]
  GI50: 436 nM
  TGI: 13600 nM
[55]
  GI50: 154 nM
  TGI: 571 nM
[56]
  GI50: 613 nM
  TGI: 13600 nM
[57]
  GI50: 460 nM
  TGI: 14000 nM
[58]
  GI50: 418 nM
  TGI: 12100 nM
